Reference: PMC10688702, “The indole motif is essential for the antitrypanosomal activity of N^5-substituted paullones” (PLOS ONE, 2023)
Where a name gives a salt, the structure may show the parent alone.

Columns and labels:
[1] = target: trypanothione synthetase of L. infantum (LiTryS) (Leishmania infantum, UniProt A4I2Z3); assay: TryS activity screening assay on recombinant LiTryS; assay type: biochemical; conditions: read-out: LiTryS activity [% at 30 μM]
Experimental: TryS from different trypanosomatids was produced in recombinant form with an N-terminal His-tag. The constructs pET-15b TbTryS and pET-28c(+)LiTryS were used to express TryS of T. b. brucei 427 (MITat1.4, GenBank accession protein id CAC87573.1), and L. infantum JPCM5 (GenBank accession protein id CAM69145.1). E. coli strain BL21 (DE3) served as the expression host. For TbTryS, the cells were cultured in a medium based in Terrific Broth and induction with isopropyl 1-thio-β-D-galactopyranoside (IPTG), while for LiTryS, the cells were cultured in ZYM-5052 auto-induction medium. For a detailed description of the expression, see Benítez et al.. The purification was performed by immobilised metal affinity chromatography in a HisTrap Fast Flow column (GE Healthcare) followed by size exclusion chromatography. […] The fractions containing recombinant TryS with ≥95% purity were pooled and concentrated to >10 mg protein/mL using a 10 kDa cut-off Amicon filter (Millipore, Billerica, CA). Glycerol was added at a final concentration of 40% (v/v). The samples were stored at -80°C. Enzyme purity and activity were assessed by SDS-PAGE (12%) under reducing conditions and by the end-point TryS assay (see TryS activity screening assay), respectively. Protein concentration was determined using the bicinchoninic acid assay with bovine serum albumin as standard. The protocols yielded 25–30 mg TbTryS or LiTryS per litre of culture medium and homogeneous specific activity.
For all TryS, ATP was used at 150 μM because of a high background signal at higher concentrations and Spd fixed at 2 mM, in agreement with the intracellular levels calculated from data reported in the literature for trypanosomatids. GSH was adjusted to 0.05 and 0.25 mM for TbTryS and LiTryS, respectively, to avoid substrate inhibition or to approach physiological concentrations. […] Microtiter plate wells were loaded with 5 μL of the test compound, DMSO (reaction control) or a TryS specific inhibitor (inhibition control) and 40 μL of MM solution. The reactions were then started by adding 5 μL of TryS (2 and 3*10^−5 μmol*min^-1*mL^-1 for LiTryS and TbTryS, respectively) and stopped after 15 min with 200 μL BIOMOL® GREEN reagent (Enzo Life Sciences). The compounds used as inhibition control were added at concentrations that inhibited 50% TryS activity: 30 μM and 150 nM MOL2008 for TbTryS and LiTryS, respectively. Blanks were prepared for each condition by adding 5 μL of screening reaction buffer instead of the enzyme. The TryS activity is calculated as follows: TrySactivity%=A650nmCi-A650nmCiB/A650nmE-A650nmEB*100%
A650 nm Ci is the mean absorbance at 650 nm for the reaction test with compound I (Ci), A650 nm CiB is the mean absorbance at 650 nm for the blank control with compound I (CiB), A650 nm E is the mean absorbance at 650 nm for the reaction control with DMSO (E) and A650 nm EB is the mean absorbance at 650 nm for the blank control with DMSO (EB). The errors were expressed as 2 standard deviations (SD), SD estimated as σ^n−1.

[2] = tested on: L. infantum amastigotes (intracellular, in J774.A1 macrophages); assay: Viability assay for L. infantum amastigotes; assay type: cell-based; conditions: Leishmania infantum, J774.A1, 24 h, read-out: L. infantum amastigote viability [% at 20 μM]
Experimental: Viability assay for L. infantum amastigotes. L. infantum promastigotes from the reference strain MHOM/MA/67/ITMAP263, stably transfected with a vector encoding a red-shifted luciferase gene (RE9HLUC; Branchini et al.; Benítez et al.) were grown in fresh complete RPMI medium (RPMI basic medium containing 25 mM HEPES, 10% v/v iFBS, 100 U/mL penicillin, 100 μg/mL streptomycin and 15 μg/mL hygromycin B) at 28°C in sealed culture flasks. Metacyclic promastigotes were obtained by a negative selection procedure using peanut agglutinin and used to infect murine macrophages (cell line J774.A1) at a 1:10 ratio for macrophages (5×10^6 cells): parasites (5×10^7 cells). 200 μL of this suspension was added per well to a 96-well culture microplate, which was then incubated at 37°C for 24 h in a 5% CO2/95% air atmosphere incubator. […] The culture microplate was incubated in the CO2 incubator for additional 24 h. Next, the supernatant was removed and the microplate wells were washed with pre-warmed PBS (200 μL). […] All conditions were tested in triplicates and the percentage amastigote viability was calculated as described for infective T. b. brucei, with errors expressed as one SD, estimated as σ^n-1.
A macrophage cell density correction factor based on the incorporation of propidium iodide was calculated and applied to normalise amastigote viability related to host cell density in the well. For a detailed explanation of the protocol, see Benítez et al..

Sequence of trypanothione synthetase of L. infantum (LiTryS) (A4I2Z3 entry or part of it): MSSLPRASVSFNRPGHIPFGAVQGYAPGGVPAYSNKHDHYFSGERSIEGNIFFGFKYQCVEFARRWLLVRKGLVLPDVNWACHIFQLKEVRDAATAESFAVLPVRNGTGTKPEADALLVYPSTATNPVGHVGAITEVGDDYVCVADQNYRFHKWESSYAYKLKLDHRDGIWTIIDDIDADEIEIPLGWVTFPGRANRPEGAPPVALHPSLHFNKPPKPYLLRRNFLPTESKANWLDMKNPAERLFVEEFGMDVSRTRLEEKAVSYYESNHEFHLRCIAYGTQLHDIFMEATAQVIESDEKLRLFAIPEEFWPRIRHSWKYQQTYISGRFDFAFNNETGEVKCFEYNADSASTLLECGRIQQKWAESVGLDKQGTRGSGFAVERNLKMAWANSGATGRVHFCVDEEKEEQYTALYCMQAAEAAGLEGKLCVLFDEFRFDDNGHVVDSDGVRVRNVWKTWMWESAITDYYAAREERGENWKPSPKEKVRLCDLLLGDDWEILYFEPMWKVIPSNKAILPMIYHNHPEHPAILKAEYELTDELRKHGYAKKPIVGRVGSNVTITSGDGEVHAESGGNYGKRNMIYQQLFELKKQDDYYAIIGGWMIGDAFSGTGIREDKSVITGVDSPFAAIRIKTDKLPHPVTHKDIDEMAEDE

Row | SMILES | activity at 30 µM [1] [%] | viability at 20 µM [2] [%]
1 | NCCCCNC(=O)CN1C(=O)CCCc2ccccc21 [2s, N-(4-Aminobutyl)-2-(2-oxo-2,3,4,5-tetrahydro-1H-benzo[b]azepin-1-yl)acetamide hydrochloride] | 104 ± 5.3 | –
2 | CO/N=C1\CCC(=O)N(CC(=O)O)c2ccccc21 [compound 22, (E/Z)-2-(5-(Methoxyimino)-2-oxo-2,3,4,5-tetrahydro-1H-benzo[b]azepin-1-yl)acetic acid] | 96.7 ± 5.2 | –
3 | CN(CCNC(=O)CN1C(=O)C(C)(C)CCc2ccccc21)C(=O)OC(C)(C)C [3c, tert-Butyl {2-[2-(3,3-dimethyl-2-oxo-2,3,4,5-tetrahydro-1H-benzo[b]azepin-1-yl)acetamido]ethyl}(methyl)carbamate] | 104 ± 7.1 | –
4 | CC(C)(C)OC(=O)NCCNC(=O)CN1C(=O)CCCc2ccccc21 [2c, tert-Butyl {2-[2-(2-oxo-2,3,4,5-tetrahydro-1H-benzo[b]azepin-1-yl)acetamido]ethyl}carbamate] | 96.7 ± 7.5 | –
5 | O=C(CN1C(=O)CCCc2ccccc21)N1CCOCC1 [2h, 1-(2-Morpholino-2-oxoethyl)-1,3,4,5-tetrahydro-2H-benzo[b]azepin-2-one] | 92.7 ± 9.2 | –
6 | CN1CCN(CCNC(=O)CN2C(=O)CCCc3ccccc32)CC1 [2u, N-[2-(4-Methylpiperazin-1-yl)ethyl]-2-(2-oxo-2,3,4,5-tetrahydro-1H-benzo[b]azepin-1-yl)acetamide dihydrochloride] | 106 ± 9.8 | 85 ± 10.6
7 | CC(C)(C)OC(=O)N1CCN(CCNC(=O)CN2C(=O)C(C)(C)CCc3ccccc32)CC1 [3b, tert-Butyl 4-{2-[2-(3,3-dimethyl-2-oxo-2,3,4,5-tetrahydro-1H-benzo[b]azepin-1-yl)acetamido]ethyl}piperazine-1-carboxylate] | 107 ± 12.6 | 94.8 ± 2.5
8 | CN(CCNC(=O)CN1C(=O)Cc2ccccc2-c2ccccc21)C(=O)OC(C)(C)C [4c, tert-Butyl N-methyl-{2-[2-(6-oxo-6,7-dihydro-5H-dibenzo[b,d]azepin-5-yl)acetamido]ethyl}carbamate] | 87.6 ± 4.6 | –
9 | O=C(O)CN1C(=O)Cc2ccccc2-c2ccccc21 [compound 19, 2-(6-Oxo-6,7-dihydro-5H-dibenzo[b,d]azepin-5-yl)acetic acid] | 97.8 ± 6.1 | –
10 | CC(C)(C)OC(=O)N1CCN(C(=O)CN2C(=O)CCCc3ccccc32)CC1 [2d, tert-Butyl 4-[2-(2-oxo-2,3,4,5-tetrahydro-1H-benzo[b]azepin-1-yl)acetyl]piperazine-1-carboxylate] | 108 ± 14.6 | –
11 | CNCCNC(=O)CN1C(=O)CCCc2ccccc21 [2r, N-[2-(Methylamino)ethyl]-2-(2-oxo-2,3,4,5-tetrahydro-1H-benzo[b]azepin-1-yl)acetamide hydrochloride] | 88.9 ± 10.4 | –
12 | CC(C)(C)OC(=O)NCCCCNC(=O)CN1C(=O)CCCc2ccccc21 [2f, tert-Butyl {4-[2-(2-oxo-2,3,4,5-tetrahydro-1H-benzo[b]azepin-1-yl)acetamido]butyl}carbamate] | 83.6 ± 8.7 | –
13 | CO/N=C1\CCC(=O)N(CC(=O)OC(C)(C)C)c2ccccc21 [compound 21, tert-Butyl (E/Z)-2-(5-(methoxyimino)-2-oxo-2,3,4,5-tetrahydro-1H-benzo[b]azepin-1-yl)acetate] | 92.4 ± 10.3 | –
14 | CNCCNC(=O)CN1C(=O)C(C)(C)CCc2ccccc21 [3e, 2-(3,3-Dimethyl-2-oxo-2,3,4,5-tetrahydro-1H-benzo[b]azepin-1-yl)-N-[2-(methylamino)ethyl]acetamide hydrochloride] | 99.8 ± 7.1 | –
15 | CO/N=C1\CCC(=O)Nc2ccccc21 [compound 20, (E)-5-methoxyimino-1,3,4,5-tetrahydro-2H-benzo[b]azepin-2-one] | 102 ± 2.4 | –
16 | NCCNC(=O)CN1C(=O)CCCc2ccccc21 [2p, N-(2-Aminoethyl)-2-(2-oxo-2,3,4,5-tetrahydro-1H-benzo[b]azepin-1-yl)acetamide hydrochloride] | 82.4 ± 9.5 | –
17 | CN1CCN(C(=O)CN2C(=O)CCCc3ccccc32)CC1 [2v, 1-[2-(4-Methylpiperazin-1-yl)-2-oxoethyl]-1,3,4,5-tetrahydro-2H-benzo[b]azepin-2-one hydrochloride] | 98.2 ± 13.7 | 72.4 ± 0.3
18 | CN(CCNC(=O)CN1C(=O)CCCc2ccccc21)C(=O)OC(C)(C)C [2e, tert-Butyl methyl-{2-[2-(2-oxo-2,3,4,5-tetrahydro-1H-benzo[b]azepin-1-yl)acetamido]ethyl}carbamate] | 92.5 ± 37.2 | –
19 | O=C(CN1C(=O)CCCc2ccccc21)N1CCCCC1 [2i, 1-[2-Oxo-2-(piperidin-1-yl)ethyl]-1,3,4,5-tetrahydro-2H-benzo[b]azepin-2-one] | 89.4 ± 4.6 | –
20 | O=C(CN1C(=O)CCCc2ccccc21)NCCN1CCOCC1 [2t, N-(2-Morpholinoethyl)-2-(2-oxo-2,3,4,5-tetrahydro-1H-benzo[b]azepin-1-yl)acetamide hydrochloride] | 91 ± 3.9 | 71.2 ± 1.5
21 | CO/N=C1\CCC(=O)N(CC(=O)NCCN2CCN(C(=O)OC(C)(C)C)CC2)c2ccccc21 [5b, tert-Butyl (E/Z)-4-(2-{2-[5-(methoxyimino)-2-oxo-2,3,4,5-tetrahydro-1H-benzo[b]azepin-1-yl]acetamido}ethyl)piperazine-1-carboxylate] | 97.8 ± 13.3 | 93 ± 9.3
22 | CCN(CC)C(=O)CN1C(=O)CCCc2ccccc21 [2k, N,N-Diethyl-2-(2-oxo-2,3,4,5-tetrahydro-1H-benzo[b]azepin-1-yl)acetamide] | 92.9 ± 6.4 | –
23 | CC(C)(C)OC(=O)N1CCN(CCNC(=O)CN2C(=O)CCCc3ccccc32)CC1 [2b, tert-Butyl 4-{2-[2-(2-oxo-2,3,4,5-tetrahydro-1H-benzo[b]azepin-1-yl)acetamido]ethyl}piperazine-1-carboxylate] | 91.4 ± 3.1 | 89.5 ± 9.9
24 | CC(C)(C)OC(=O)NC1CCN(C(=O)CN2C(=O)CCCc3ccccc32)CC1 [2g, tert-Butyl {1-[2-(2-oxo-2,3,4,5-tetrahydro-1H-benzo[b]azepin-1-yl)acetyl]piperidine-4-yl}carbamate] | 93.3 ± 6.1 | –
